Patent US4016159A, “Acylamino-cephem-carboxylic acids containing an amidino or guanidino group in the molecule” (Hoechst Aktiengesellschaft, priority 1973, dated 1977)
Values after ≈ are worked out from the molar mass of the structure shown. Like-named read-outs stand apart in the source and are kept apart here.

Tests used:
Assay type in all cases: cell-based
Streptococcus pyogenes A = test: Minimum inhibition concentration (MIC), Table 3; conditions: read-out: Minimum inhibition concentration MIC
From the text: Minimum inhibition concentration MIC in γ/ml
Germ: Streptococcus pyogenes A

Proteus mirabilis = test: Minimum inhibition concentration (MIC), Table 2; conditions: read-out: Minimum inhibition concentration (MIC)
From the text: Minimum inhibition concentration (MIC) in /ml

Streptococcus D = test: Minimum inhibition concentration (MIC), Table 4; conditions: Streptococcus, read-out: Minimum inhibition concentration (MIC)
From the text: (§1) Minimum inhibition concentration (MIC) in γ/ml

[1] = system: Staphylococcus aureus 285; test: Minimum inhibition concentration (MIC), Table 1; conditions: Staphylococcus aureus, 285, Germ: Staphylococcus aureus 285; read-out: Minimum inhibition concentration (MIC)
From the text: as §1
Germ: Staphylococcus aureus 285

[2] = system: Staphylococcus aureus SG 511; test: Minimum inhibition concentration (MIC), Table 5; conditions: Staphylococcus aureus
From the text: as §1
Germ: Staphylococcus aureus SG 511

[3] = SG511, Germ: Staphylococcus aureus SG 511, read-out: Minimum inhibition concentration (MIC)
[4] = SG511, read-out: Minimum inhibition concentration (MIC)

| MIC (Streptococcus pyogenes A; Germ: Streptococcus pyogenes A) [ng/mL] | MIC (Proteus mirabilis; Germ: Proteus mirabilis) [µg/mL] | MIC (Streptococcus D; Germ: Streptococcus D) [µg/mL] | MIC [1] [µg/mL] | MIC [2, 3] [µg/mL] | Structure (SMILES) | MIC (Streptococcus pyogenes A; Streptococcus pyogenes) [ng/mL] | MIC [2, 4] [µg/mL] | MIC (Proteus mirabilis; Proteus mirabilis) [µg/mL] | MIC (Streptococcus D) [µg/mL] |
| --- | --- | --- | --- | --- | --- | --- | --- | --- | --- |
| 8 to 15.6 (≈ 0.0157 to 0.0305 µM) | 25 (≈ 49 µM) | 10 to 50 (≈ 19.6 to 97.9 µM) | 0.156 to 0.391 (≈ 0.305 to 0.766 µM) |  | Cc1nnc(SCC2=C(C(=O)O)N3C(=O)C(NC(=O)Cc4ccc(C(=N)N)s4)C3SC2)s1 (stereo not drawn) [Example 2, 3-[(5-methyl-1,3,4-thiadiazole-2-yl)-thiomethyl]-7-(5-amidinothienylacetamido)-Δ-3-cephem-4-carboxylic acid] |  |  |  |  |
| 0.391 to 7.8 (≈ 0.0007 to 0.014 µM) | 25 (≈ 44.7 µM) | 10 to 50 (≈ 17.9 to 89.5 µM) | 0.156 to 0.391 (≈ 0.279 to 0.7 µM) | 0.0196 to 0.0391 (≈ 0.0351 to 0.07 µM) | CCc1nnc(SCC2=C(C(=O)O)N3C(=O)C(NC(=O)Cc4ccc(C5=NCCCN5)cc4)C3SC2)s1 (stereo not drawn) [Example 121, 3-[(5-ethyl-1,3,4-thiadiazole-2-yl)-thiomethyl]-7-[4-(1,4,5,6-tetrahydropyrimide-2-yl)-phenylacetamido]-Δ3-cephem-4-carboxylic acid] |  |  |  |  |
| 30 (≈ 0.066 µM) | 25 (≈ 55 µM) |  |  | 0.25 (≈ 0.55 µM) | Cc1nnc(SCC2=C(C(=O)O)N3C(=O)[C@@H](NC(=O)Cn4cnnn4)[C@H]3SC2)s1 [Cephazolin-Na, reference compound] |  |  |  |  |
|  |  |  |  |  | CC(=O)OCC1=C(C(=O)O)N2C(=O)[C@@H](NC(=O)Cc3cccs3)[C@H]2SC1 [Cephalotin-Na, reference compound] | 50 (≈ 0.126 µM) | 0.13 (≈ 0.328 µM) | 12.5 (≈ 31.5 µM) | 78.5 (≈ 198 µM) |
| 0.391 to 7.8 (≈ 0.000799 to 0.0159 µM) | 25 (≈ 51.1 µM) | 10 to 50 (≈ 20.4 to 102 µM) | 0.156 to 0.391 (≈ 0.319 to 0.799 µM) | 0.0196 to 0.0391 (≈ 0.04 to 0.0799 µM) | N=C(N)c1ccc(CC(=O)NC2C(=O)N3C(C(=O)O)=C(CSc4nccs4)CSC23)cc1 (stereo not drawn) [Example 4, 3-[(thiazole-2-yl)-thiomethyl]-7-(4-amidino-phenylacetamido)-Δ3-cephem-4-carboxylic acid] |  |  |  |  |
| 8 to 15.6 (≈ 0.0154 to 0.03 µM) | 3.1 to 12.5 (≈ 5.97 to 24.1 µM) | 10 to 50 (≈ 19.2 to 96.2 µM) | 0.156 to 0.391 (≈ 0.3 to 0.752 µM) | 0.0196 to 0.0391 (≈ 0.0377 to 0.0752 µM) | Cc1nnc(SCC2=C(C(=O)O)N3C(=O)C(NC(=O)Cc4ccc(NC(=N)N)cc4)C3SC2)s1 (stereo not drawn) [Example 6, 3-[(5-methyl-1,3,4-thiadiazole-2-yl)-thiomethyl]-7-(4-guanidino-phenylacetamido)-Δ3-cephem-4-carboxylic acid] |  |  |  |  |
| 0.391 to 7.8 (≈ 0.000797 to 0.0159 µM) | 3.1 to 12.5 (≈ 6.32 to 25.5 µM) | 10 to 50 (≈ 20.4 to 102 µM) | 0.156 to 0.391 (≈ 0.318 to 0.797 µM) | 0.0196 to 0.0391 (≈ 0.04 to 0.0797 µM) | N=C(N)c1ccc(CC(=O)NC2C(=O)N3C(C(=O)O)=C(CSc4nncs4)CSC23)cc1 (stereo not drawn) [Example 1, 3-[(1,3,4-thiadiazole-2-yl)-thiomethyl]-7-(4-amidino-phenylacetamido)-Δ3-cephem-4-carboxylic acid] |  |  |  |  |
| 8 to 15.6 (≈ 0.0161 to 0.0314 µM) | 3.1 to 12.5 (≈ 6.24 to 25.2 µM) | 10 to 50 (≈ 20.1 to 101 µM) | 0.156 to 0.391 (≈ 0.314 to 0.787 µM) | 0.0625 to 0.078 (≈ 0.126 to 0.157 µM) | N=C(N)c1ccc(CC(=O)NC2C(=O)N3C(C(=O)O)=C(CSc4nncs4)CSC23)s1 (stereo not drawn) [Example 3, 3-[(1,3,4-thiadiazole-2-yl)-thiomethyl]-7-(5-amidinothienyl-acetamido)-Δ3-cephem-4-ccarboxylic acid] |  |  |  |  |
|  |  |  |  |  | CC1=C(C(=O)O)N2C(=O)[C@@H](NC(=O)[C@H](N)c3ccccc3)[C@H]2SC1 [Cephalexin, reference compound] | 156 (≈ 0.449 µM) | 1.25 (≈ 3.6 µM) | 25 (≈ 72 µM) | 100 (≈ 288 µM) |
| 8 to 15.6 (≈ 0.0151 to 0.0294 µM) | 3.1 to 12.5 (≈ 5.84 to 23.6 µM) | 0.196 to 6.25 (≈ 0.369 to 11.8 µM) | 0.156 to 0.391 (≈ 0.294 to 0.737 µM) |  | Cc1nnc(SCC2=C(C(=O)O)N3C(=O)C(NC(=O)Cc4ccc(C5=NCCN5)cc4)C3SC2)s1 (stereo not drawn) [Example 12, 3-[(5-methyl-1,3,4-thiadiazole-2-yl)-thiomethyl]-7-[4-(imidazoline-2-yl)-phenylacetamido]-Δ 3-cephem-4-carboxylic acid] |  |  |  |  |
| 0.391 to 7.8 (≈ 0.000718 to 0.0143 µM) | 3.1 to 12.5 (≈ 5.69 to 22.9 µM) | 10 to 50 (≈ 18.4 to 91.8 µM) | 0.156 to 0.391 (≈ 0.286 to 0.718 µM) | 0.0196 to 0.0391 (≈ 0.036 to 0.0718 µM) | CCc1nnc(SCC2=C(C(=O)O)N3C(=O)C(NC(=O)Cc4ccc(C5=NCCN5)cc4)C3SC2)s1 (stereo not drawn) [Example 120] |  |  |  |  |
| 0.391 to 7.8 (≈ 0.000715 to 0.0143 µM) | 25 (≈ 45.7 µM) | 10 to 50 (≈ 18.3 to 91.5 µM) | 0.156 to 0.391 (≈ 0.285 to 0.715 µM) | 0.0625 to 0.078 (≈ 0.114 to 0.143 µM) | CCCCc1nnc(SCC2=C(C(=O)O)N3C(=O)C(NC(=O)Cc4ccc(C(=N)N)cc4)C3SC2)s1 (stereo not drawn) [Example 55, 3-[(5-n-butyl-1,3,4-thiadiazole-2-yl)-thiomethyl]-7-(4-amidinophenylacetamido)-Δ 3-cephem-4-carboxylic acid] |  |  |  |  |
